# Test results from patent US20260042755A1, “GPR6 INVERSE AGONISTS” (MapLight Therapeutics, Inc., priority 2022, published 2026).
# Columns and labels:
# [1] = target: T1, GPR3 (Homo sapiens, UniProt P46089); test: GPR3 antagonist functional cAMP assay (LANCE Ultra cAMP TR-FRET, CHO cells stably expressing GPR3); assay type: cell-based
# T1 construct: expressed in transfected cells; host or cells: CHO cells
# How it was run: (§1)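 10,000 cells/well; KRB buffer + 0.1% BSA + 150 μM Ro 20-1724; cpd 45 min, 37 °C, 0.1% DMSO; TR-FRET cAMP, 665 nm; 4-PL fit, normalized to DMSO (0.1%) and reference (100%) → IC50.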
# [2] = target: T2, GPR6 (Homo sapiens, UniProt P46095); test: GPR6 antagonist functional cAMP assay (LANCE Ultra cAMP TR-FRET, CHO cells stably expressing GPR6); assay type: cell-based
# T2 construct: expressed in transfected cells; host or cells: CHO cells
# How it was run: as §1
# [3] = procedure as described in Example 24
# T1 sequence (P46089 whole entry, species assumed): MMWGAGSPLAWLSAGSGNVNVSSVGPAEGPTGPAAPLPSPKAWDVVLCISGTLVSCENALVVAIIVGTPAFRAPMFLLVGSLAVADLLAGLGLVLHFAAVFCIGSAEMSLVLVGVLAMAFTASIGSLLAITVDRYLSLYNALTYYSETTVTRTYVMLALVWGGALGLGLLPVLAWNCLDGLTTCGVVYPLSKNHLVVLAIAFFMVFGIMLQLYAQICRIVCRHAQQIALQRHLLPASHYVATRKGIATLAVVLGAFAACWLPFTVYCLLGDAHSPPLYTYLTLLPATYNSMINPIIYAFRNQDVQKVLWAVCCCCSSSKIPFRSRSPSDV
# T2 sequence (P46095 whole entry): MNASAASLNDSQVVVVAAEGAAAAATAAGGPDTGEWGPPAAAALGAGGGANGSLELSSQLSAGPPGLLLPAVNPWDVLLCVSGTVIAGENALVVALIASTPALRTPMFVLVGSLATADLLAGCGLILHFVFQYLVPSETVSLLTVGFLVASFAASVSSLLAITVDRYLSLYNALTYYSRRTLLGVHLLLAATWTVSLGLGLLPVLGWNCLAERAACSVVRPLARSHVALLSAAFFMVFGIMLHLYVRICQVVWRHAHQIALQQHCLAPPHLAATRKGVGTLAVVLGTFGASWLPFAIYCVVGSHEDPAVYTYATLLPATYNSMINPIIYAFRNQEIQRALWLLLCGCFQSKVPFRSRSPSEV
Structure (SMILES),IC50 ([1]; procedure of Example 24),IC50 ([2]; procedure of Example 24),"IC50 [1, 3]","IC50 [2, 3]"
"CC(C)(O)C(O)c1cc2nc(-c3cnn(CF)c3)c(N3CCC(=Cc4ccc(F)cc4F)CC3)nc2cn1 (single isomer, unassigned) [Compound 777]",0.1 to 1 µM,0.1 to 1 µM,,
"CC(C)(O)[C@@H](O)c1cc2nc(N3CCC(=Cc4ccc(F)cc4F)CC3)c(-c3cnn(C(F)F)c3)nc2cn1 (single isomer, unassigned) [Compound 778]",1 to 30 µM,0.1 to 1 µM,,
"CC(C)(O)[C@H](O)c1cc2nc(N3CCC(=Cc4ccc(F)cc4F)CC3)c(-c3cnn(C(F)F)c3)nc2cn1 (single isomer, unassigned) [Compound 779]",1 to 30 µM,< 0.1 µM,,
"CC(C)(O)[C@H](O)c1cc2nc(-c3cnn(C4CC4)c3)c(N3CCN(Cc4ccccc4F)CC3)nc2cn1 (single isomer, unassigned) [Compound 781]",1 to 30 µM,0.1 to 1 µM,,
"CC(C)(O)C(C)(O)c1cc2nc(-c3cnn(CF)c3)c(N3CCC(Oc4ccc(F)cc4F)CC3)nc2cn1 (single isomer, unassigned) [Compound 782]",1 to 30 µM,0.1 to 1 µM,,
"CC(C)(O)[C@@](C)(O)c1cc2nc(-c3cnn(CF)c3)c(N3CCC(Oc4ccc(F)cc4F)CC3)nc2cn1 (single isomer, unassigned) [Compound 783]",1 to 30 µM,0.1 to 1 µM,,
"CC(C)(O)[C@H](O)c1cc2nc(N3CCC(=Cc4ccc(F)cc4F)CC3)c(-c3cnn(CF)c3)nc2cn1 (single isomer, unassigned) [Compound 784]",1 to 30 µM,< 0.1 µM,,
"CC(C)(O)[C@@H](O)c1cc2nc(N3CCC(=Cc4ccc(F)cc4F)CC3)c(-c3cnn(CF)c3)nc2cn1 (single isomer, unassigned) [Compound 785]",1 to 30 µM,< 0.1 µM,,
"CC(C)(O)[C@H](O)c1cc2nc(-c3cnn(CF)c3)c(N3CCC(Cc4ccc(F)cc4F)CC3)nc2cn1 (single isomer, unassigned) [Compound 787]",< 0.1 µM,< 0.1 µM,,
"CC(C)(O)[C@](C)(O)c1cc2nc(-c3cnn(C(F)F)c3)c(N3CCN(Cc4cc(F)ccc4F)CC3)nc2cn1 (single isomer, unassigned) [Compound 795]",1 to 30 µM,0.1 to 1 µM,,
"CC(C)(O)[C@H](O)c1cc2nc(-c3cn[nH]c3)c(N3CCN(Cc4ccc(F)cc4F)CC3)nc2cn1 (single isomer, unassigned) [Compound 799]",1 to 30 µM,1 to 30 µM,,
"CC(C)(O)[C@@H](O)c1cc2nc(-c3cn[nH]c3)c(N3CCN(Cc4ccc(F)cc4F)CC3)nc2cn1 (single isomer, unassigned) [Compound 800]",1 to 30 µM,0.1 to 1 µM,,
"Cn1cc(-c2nc3cc([C@H](O)C(C)(C)O)ncc3nc2N2CCN(Cc3ccc(F)cc3F)CC2)cn1 (stereo in doubt) [Compound 370, (Rel-S)-1-(3-(4-(2,4-difluorobenzyl)piperazin-1-yl)-2-(1-methyl-1H-pyrazol-4-yl)pyrido[3,4-b]pyrazin-7-yl)-2-methylpropane-1,2-diol]",1 to 30 µM,< 0.1 µM,,
"CC(=O)N1CCc2nc(N3CCC(Oc4ccc(F)cc4F)CC3)c(-c3ncn[nH]3)nc2C1 [Compound 1, 1-{2-[4-(2,4-difluorophenoxy)piperidin-1-yl]-3-(1H-1,2,4-triazol-5-yl)-5H,6H,7H,8H-pyrido[3,4-b]pyrazin-6-yl}ethan-1-one]",,,0.1 to 1 µM,1 to 30 µM
"CC(=O)N1CCc2nc(N3CCC(Oc4ccc(F)cc4F)CC3)c(-c3cccc(C#N)n3)nc2C1 [Compound 2, 6-{6-acetyl-2-[4-(2,4-difluorophenoxy)piperidin-1-yl]-5H,6H,7H,8H-pyrido[3,4-b]pyrazin-3-yl}pyridine-2-carbonitrile]",,,1 to 30 µM,0.1 to 1 µM
"CC(=O)N1CCc2nc(N3CCC(Oc4ccc(F)cc4F)CC3)c(-c3cnn(CC(F)F)c3)nc2C1 [Compound 3, 1-{3-[1-(2,2-difluoroethyl)-1H-pyrazol-4-yl]-2-[4-(2,4-difluorophenoxy)piperidin-1-yl]-5H,6H,7H,8H-pyrido[3,4-b]pyrazin-6-yl}ethan-1-one]",,,1 to 30 µM,0.1 to 1 µM
"Fc1ccc(Cl)cc1CN1CCN(c2nc3ccncc3nc2-c2cn[nH]c2)CC1 [Compound 4, 1-[(5-chloro-2-fluorophenyl)methyl]-4-[3-(1H-pyrazol-4-yl)pyrido[3,4-b]pyrazin-2-yl]piperazine]",,,1 to 30 µM,0.1 to 1 µM

Structure (SMILES),IC50 ([1]; procedure of Example 24),IC50 ([2]; procedure of Example 24),"IC50 [1, 3]","IC50 [2, 3]"
"Clc1ccc(Cl)c(CN2CCN(c3nc4ccncc4nc3-c3ncc[nH]3)CC2)c1 [Compound 5, 1-[(2,5-dichlorophenyl)methyl]-4-[3-(1H-imidazol-2-yl)pyrido[3,4-b]pyrazin-2-yl]piperazine]",,,1 to 30 µM,0.1 to 1 µM
"CNC(=O)c1ccc2nc(-c3nccn3COC)c(N3CCN(Cc4cc(Cl)ccc4Cl)CC3)nc2c1 [Compound 6, 3-{4-[(2,5-dichlorophenyl)methyl]piperazin-1-yl}-2-[1-(methoxymethyl)-1H-imidazol-2-yl]-N-methylquinoxaline-6-carboxamide]",,,1 to 30 µM,1 to 30 µM
"COc1ccnc(-c2nc3c(nc2N2CCC(Oc4ccc(F)cc4F)CC2)CCN(C(C)=O)C3)c1 [Compound 7, 1-(2-(4-(2,4-difluorophenoxy)piperidin-1-yl)-3-(4-methoxypyridin-2-yl)-7,8-dihydropyrido[3,4-b]pyrazin-6(5H)-yl)ethan-1-one]",,,0.1 to 1 µM,1 to 30 µM
"CC(=O)N1CCc2nc(N3CCC(Oc4ccc(F)cc4F)CC3)c(-c3cnsc3)nc2C1 [Compound 8, 1-{2-[4-(2,4-difluorophenoxy)piperidin-1-yl]-3-(1,2-thiazol-4-yl)-5H,6H,7H,8H-pyrido[3,4-b]pyrazin-6-yl}ethan-1-one]",,,1 to 30 µM,0.1 to 1 µM
"Fc1ccc(OC2CCN(c3nc4ccncc4nc3-c3cn[nH]c3)CC2)c(F)c1 [Compound 9, 4-(2,4-difluorophenoxy)-1-[3-(1H-pyrazol-4-yl)pyrido[3,4-b]pyrazin-2-yl]piperidine]",,,0.1 to 1 µM,0.1 to 1 µM
COc1ccc(-c2nc3c(nc2N2CCC(Oc4ccc(F)cc4F)CC2)CCN(C(C)=O)C3)nc1 [Compound 10],,,1 to 30 µM,0.1 to 1 µM
"CC(=O)N1CCc2nc(N3CCC(Oc4ccc(F)cc4F)CC3)c(-c3ccn[nH]3)nc2C1 [Compound 11, 1-{2-[4-(2,4-difluorophenoxy)piperidin-1-yl]-3-(1H-pyrazol-5-yl)-5H,6H,7H,8H-pyrido[3,4-b]pyrazin-6-yl}ethan-1-one]",,,1 to 30 µM,1 to 30 µM
"CC(=O)N1CCc2nc(N3CCC(Oc4ccc(F)cc4F)CC3)c(-c3cncc(=O)[nH]3)nc2C1 [Compound 12, 6-{6-acetyl-2-[4-(2,4-difluorophenoxy)piperidin-1-yl]-5H,6H,7H,8H-pyrido[3,4-b]pyrazin-3-yl}-1,2-dihydropyrazin-2-one]",,,1 to 30 µM,1 to 30 µM
"CC(=O)N1CCc2nc(N3CCC(Oc4ccc(F)cc4F)CC3)c(-c3ccncn3)nc2C1 [Compound 13, 1-{2-[4-(2,4-difluorophenoxy)piperidin-1-yl]-3-(pyrimidin-4-yl)-5H,6H,7H,8H-pyrido[3,4-b]pyrazin-6-yl}ethan-1-one]",,,0.1 to 1 µM,1 to 30 µM
"COCn1cc(-c2nc3c(nc2N2CCC(Oc4ccc(F)cc4F)CC2)CCN(C(C)=O)C3)cn1 [Compound 14, 1-{2-[4-(2,4-difluorophenoxy)piperidin-1-yl]-3-[1-(methoxymethyl)-1H-pyrazol-4-yl]-5H,6H,7H,8H-pyrido[3,4-b]pyrazin-6-yl}ethan-1-one]",,,1 to 30 µM,0.1 to 1 µM
"CC(=O)N1CCc2nc(N3CCC(Oc4ccc(F)cc4F)CC3)c(-c3cnn(C(F)F)c3)nc2C1 [Compound 15, 1-{3-[1-(difluoromethyl)-1H-pyrazol-4-yl]-2-[4-(2,4-difluorophenoxy)piperidin-1-yl]-5H,6H,7H,8H-pyrido[3,4-b]pyrazin-6-yl}ethan-1-one]",,,1 to 30 µM,0.1 to 1 µM
"CC(=O)N1CCc2nc(N3CCC(Oc4ccc(F)cc4F)CC3)c(-c3cnn(CCF)c3)nc2C1 [Compound 16, 1-{2-[4-(2,4-difluorophenoxy)piperidin-1-yl]-3-[1-(2-fluoroethyl)-1H-pyrazol-4-yl]-5H,6H,7H,8H-pyrido[3,4-b]pyrazin-6-yl}ethan-1-one]",,,1 to 30 µM,0.1 to 1 µM
"CC(=O)N1CCc2nc(N3CCC(Oc4ccc(F)cc4F)CC3)c(-c3cnc4n3CCN(C(C)=O)C4)nc2C1 [Compound 17, 1-(3-(6-acetyl-2-(4-(2,4-difluorophenoxy)piperidin-1-yl)-5,6,7,8-tetrahydropyrido[3,4-b]pyrazin-3-yl)-5,6-dihydroimidazo[1,2-a]pyrazin-7(8H)-yl)ethan-1-one]",,,1 to 30 µM,1 to 30 µM
"CC(=O)N1CCc2nc(N3CCC(Oc4ccc(F)cc4F)CC3)c(-c3ncco3)nc2C1 [Compound 18, 1-{2-[4-(2,4-difluorophenoxy)piperidin-1-yl]-3-(1,3-oxazol-2-yl)-5H,6H,7H,8H-pyrido[3,4-b]pyrazin-6-yl}ethan-1-one]",,,0.1 to 1 µM,1 to 30 µM
"CC(=O)N1CCc2nc(N3CCC(Oc4ccc(F)cc4F)CC3)c(-c3cnccn3)nc2C1 [Compound 19, 1-{2-[4-(2,4-difluorophenoxy)piperidin-1-yl]-3-(pyrazin-2-yl)-5H,6H,7H,8H-pyrido[3,4-b]pyrazin-6-yl}ethan-1-one]",,,0.1 to 1 µM,1 to 30 µM
"COc1cc(-c2nc3c(nc2N2CCC(Oc4ccc(F)cc4F)CC2)CCN(C(C)=O)C3)ccn1 [Compound 20, 1-{2-[4-(2,4-difluorophenoxy)piperidin-1-yl]-3-(2-methoxypyridin-4-yl)-5H,6H,7H,8H-pyrido[3,4-b]pyrazin-6-yl}ethan-1-one]",,,1 to 30 µM,0.1 to 1 µM
